Data as given in patent publication US20250387371A1, “COMPOSITIONS AND FORMULATION METHODS FOR SUSTAINED LOCAL RELEASE OF ANTIFIBROTICS” (THE HOPKINS UNIVERISTY, priority 2022, published 2025).
In brackets after ≈: the same amount, converted by molar mass. Like-named read-outs stand apart in the source and are kept apart here.

Assays:
[1] = test system: small intestine fibrosis mouse model; experiment: Mouse intestine transplant fibrosis model; assay type: in vivo; settings: three times daily oral 100 mg/kg for 7 days
Description: An intestine transplantation model (FIG. 6) that was previously used to validate the antifibrotic efficacy of oral pirfenidone was employed. Meier et al., 2016. Sul-NC at a dose of 50 mg/kg or 150 mg/kg was given as a single injection at the site of the transplant and compared to oral pirfenidone at the dose previously described to be effective in the model, three times daily oral dosing with 100 mg/kg. […] Again, there was a striking difference between the dose and frequency of administration when comparing pirfenidone (three times daily dosing, total dose 2,100 mg/kg) vs Sul-NC (single dose, 50 mg/kg).
5-8 week old male C57BL/6J mice were utilized in an intestine transplantation model with minor modifications (FIG. 6). Meier et al., 2016. Briefly, a 6-cm segment of small intestine proximal to the ileocecal valve was excised from a donor mouse in a sterilized biosafety cabinet. The tissue was washed with cold saline 3 times, and carefully cut into 1 cm segments that were placed in a petri dish with cold saline. The back neck of the recipient mice was shaved. […] Four representative images were taken for each tissue to quantify the collagen thickness. For each image, 10 different areas were measured by a masked observer with image J Fiji (NIH, Bethesda, MD). Data were analyzed with GraphPad Prism 9 (San Diego, CA, USA).

[2] = test system: bleomycin-induced mouse skin fibrosis model; experiment: Bleomycin-induced skin fibrosis model; assay type: in vivo; settings: 4 weeks
Description: There is a paucity of animal models of GI tract fibrosis/strictures. Li et al., 2021. To obtain preliminary evidence regarding efficacy of Sul-NC as antifibrotic in vivo, a well-described and reproducible bleomycin-induced rodent skin fibrosis model was used. Yamamoto et al., 1999. To induce fibrosis, bleomycin was injected in mouse skin at five spots within a 1×1 cm region on the back every other day for four weeks (FIG. 3), as previously described. Yamamoto et al., 1999. […] In addition, the Masson's Trichrome staining confirmed that the thickness of the dermis was due to deposition of collagen and other ECM proteins (blue staining in the figure). Of note, there was a striking difference between the dose and frequency of administration when comparing pirfenidone (daily dosing, total dose 2,800 mg/kg) vs Sul-NC (once weekly, total dose 200 mg/kg).
5-8 week old male C57BL/6J mice were utilized for bleomycin induced skin fibrosis model. The upper back was shaved, and 100 μL bleomycin (0.5 mg/ml in PBS) was injected subcutaneously every other day into one of five sectors in a defined 1-cm^2 area (see FIG. 3). […] Five representative images for each mouse were taken to quantify skin dermal thickness. For each image, five different areas were measured by a masked observer with image J Fiji (NIH, Bethesda, MD). Data were analyzed with GraphPad Prism 9 (San Diego, CA, USA).

CCD-18Co cells [3] = experiment: RT-PCR of α-SMA (ACTA2) expression in activated CCD-18Co cells; assay type: cell-based, human
Description: (§1) RNA was extracted using TRIzol Reagent as previously described. Li et al., 2017. RNAs were reverse transcribed into cDNA with ReverAid First Strand cDNA synthesis kit. SYBR Green PCR Master Mix kit was utilized for the real time PCR using a QuantStudio 3 PCR machine (Applied Biosystems, Waltham, MA). Primers used are detailed in Table 6. Each reaction was performed in triplicate for each primer with a no-template negative control. QuantStudio Design and Analysis Software 1.5.2 was used to analyze the data using the ΔΔCT method.

LX2 cells = experiment: RT-PCR of α-SMA (ACTA2) expression in activated LX2 cells; assay type: cell-based, human; settings: activated LX-2
Description: as §1

[4] = test system: human primary colonic fibroblasts (CCD-18Co) activated with TGF-β; experiment: High throughput microscopy-based drug screening (α-SMA and COL1A1 immunocytochemistry); assay type: cell-based; settings: TGF-β-activated CCD-18Co, 4 mM
Source text: To identify potential antifibrotic agents, a high-throughput microscope-based drug screening approach using human primary colonic fibroblasts (CCD-18Co) activated with transforming growth factor-β (TGF-β) was used. A panel of 1,586 FDA-approved small molecule drugs were then screened for their ability to reduce expression of α-SMA and type 1 collagen (COL1A1) as assessed by fluorescent immunocytochemistry. Based on its known antifibrotic effects, pirfenidone was included in this screen and found effective at a dose of 4 mM (FIG. 1A).
Human primary colonic fibroblasts (CCD-18Co) were seeded in 96 well flat bottom plate. Twenty-four hours later, cells were washed and starved with alpha-MEM medium without FBS for 24 h. The cells were then washed and the media was replaced with alpha-MEM supplemented with 10% FBS containing 5 ng/ml TGF-β and activated for 48 h. The cells were then washed again and fresh medium containing 5 ng/ml TGF-β and 10 μM of a drug from a library of 1,586 FDA approved small molecules was applied to the cells. After 4 days, the cells were fixed with 10% neutral formalin for 15 min and permeabilized with 0.5% Triton X-100 in PBS. […] Images were analyzed with Image J2 Fiji (NIH, Bethesda, MD) to determine the drug treatment efficacy as assessed by reduction in the intensity of α-SMA and collagen staining per cell. […]

C57BL/6J mice = settings: both, mouse, in vivo; for Survival: ip
in vivo = settings: both, C57BL/6J, mouse, sc
[5] = test system: human hepatic stellate cells (LX2); experiment: Western blot of α-SMA and COL1A1 in activated LX2 cells; assay type: cell-based; settings: activated LX2, 10 μM, 96 h
Description: (§2) LX2 and CCD-18Co were seeded in 6 well plate. Twenty-four hours later, cells were washed and starved with Alpha MEM medium without FBS for 24 h. The cells were then washed and the media was replaced with Alpha MEM supplemented with 10% FBS containing 5 ng/ml TGF-β and activated for 48 h. […] The cells were then washed three times with cold PBS and treated with protein lysis RIPA buffer with complete protease inhibitor cocktail. Protein concentration was determined with Pierce BCA protein Assay Kit. 20 μg of total protein lysate from each treatment group was loaded into each well of a Mini-Protean TGX gel (4-15%), and electrophoresis was performed using 1× Tris/Glycine/SDS Buffer. Proteins were then transferred to nitrocellulose membranes using 1× Tris/Glycine with methanol. Membranes were blocked with Intercept (TBS) blocking buffer for 1 h at room temperature and then incubated with anti-α-SMA antibody (1:1000), and COL1A1 antibody (1:1000) at 4° C. overnight. Membranes were washed with TBS-0.1% Tween three times for 10 min each, and then incubated in IRDye-Secondary antibodies (1:10,000) at room temperature for 1 h. The membranes were then washed with TBS-0.1% Tween three times for 10 min each and rinsed with 1×TBS to remove residual Tween20. Membranes were then scanned with an Odyssey Image System (Li-Cor, Lincoln, NE, USA).

[6] = topical dosing; cited from earlier work
physchem = assay type: physicochemical
CCD-18Co cells [7] = experiment: Western blot of α-SMA and COL1A1 in activated CCD-18Co cells; assay type: cell-based, human; settings: 10 μM, 96 h
Description: as §2

[8] = In vitro drug release under accelerated conditions (rapid equilibrium dialysis); assay type: physicochemical
Description: Sul-NC (5 mg/mL, 50 μL) were placed in a rapid equilibrium dialysis s(RED) device with an 8 kDa molecular weight cutoff (n=3). The outer reservoir was filled with 1 mL of 0.5% Tween 80 in phosphate buffered saline (PBS-T) solution. The samples were incubated on an orbital shaker with temperature control at 37° C. and 300 rpm. Every 24 h, 1 mL of the solution was collected and replenished with fresh 1 mL PBS-T solution. […] Mobile phase A was water containing 0.1% trifluoroacetic acid (TFA) and mobile phase B was acetonitrile containing 0.1% TFA. The isocratic flow was composed 70% of mobile phase A and 30% mobile phase B at 1 mL/min flow rate for 10 min. […] The drug amount was quantified and used to calculate the accumulation percentage. The release curves were plotted with GraphPad Prism 9 (San Diego, CA).

[9] = mouse, in vivo, sc, 50 mg/kg
Description: Each treatment group contain 3-9 mice. […] MTD was injected and blood were taken for liver and kidney function test (Table 5).

SMILES | collagen layer thickness [1] | thickness of the dermis compared to Vehicle ([2]; daily oral 100 mg/kg) | concentration below which no effect on ACTA2 expression was shown (CCD-18Co cells [3]) | concentration below which no effect on ACTA2 expression was shown (LX2 cells) | decrease in the staining of α-SMA and COL1A1 [4] | dose resulting in reduced survival (C57BL/6J mice) | Survival (C57BL/6J mice; 15 mg/kg) | Survival (C57BL/6J mice; 30 mg/kg) | Survival (C57BL/6J mice; 40 mg/kg) | MTD (in vivo) | thickness of the dermis compared to Vehicle ([2]; 10-mg/kg IP every other day) | protein production of α-SMA and COL1A1 (Western blot) [5] | elimination via the feces [6] | solubility (physchem) | protein production of α-SMA and COL1A1 (Western blot) (CCD-18Co cells [7]) | passage of free drug through the dialysis membrane [8] | blood level of ALT and BUN [9]
Cc1ccc(=O)n(-c2ccccc2)c1 [pirfenidone] | 9.1±0.3 μm | significantly reduced | 4 mM | 4 mM | effective | – | – | – | – | – | – | – | – | – | – | – | –
Clc1ccc(CSC(Cn2ccnc2)c2ccc(Cl)cc2Cl)cc1 (centres unmarked) [sulconazole] | – | – | – | – | – | 50 mg/kg | 5/5 (100%) | 5/5 (100%) | 5/5 (100%) | 50 mg/kg | significantly reduced | significantly reduced | one of the primary clearance routes | 240 µg/mL (≈ 603 µM) | significantly reduced | not impeded by the dialysis membrane | increased
